Counter-ions that a name gives are not always drawn.
Tests used:
mice = assay: Acute intraperitoneal toxicity in groups of six mice; format: in vivo; details: for mice died: six mice
Description: In tests when metabolite A-27106 sodium salt was administered intraperitoneally to groups of six mice each:
In similar tests, when monensin sodium salt was administered intraperitoneally to groups of six mice each: […]

[1] = Electrometric titration (pKa); format: physicochemical; details: pH 8; electrometric titration in water, initial pH of 8
Excerpt: The acid form of metabolite A-27106 is a white amorphous solid, having a molecular weight of about 832.

coccidiosis = assay: Other studies with A-27106 sodium salt alone and combined with monensin in the diet; format: in vivo, birds
Description: Numerous other studies were carried out with metabolite A-27106 sodium salt, both alone and in combination with monensin.

[2] = Solubility in organic solvents; format: physicochemical
rumen fluid = assay: Volatile fatty acid production in incubated diluted rumen fluid; design: species or system steer; details: 16 hours, 38°C.
Excerpt: Rumen fluid is obtained from a steer with a surgically-installed fistula opening into the rumen. The steer is maintained on a high-grain ration, the composition of which follows:
A sample of rumen fluid is strained through four layers of cheesecloth, and the filtrate is collected. The particulate matter retained by the cheesecloth is resuspended in enough physiological buffer to return it to the original volume of the rumen fluid, and this suspension is strained again. The buffer used has the following composition:
The two filtrates are combined and allowed to stand until particulate matter separates to the top. The clear layer is separated, diluted with the same buffer (1:1) and then adjusted to pH 7.0.
The diluted rumen fluid (10 ml.) is placed in a 25-ml. flask with 40 mg. of the above-described feed, an additional 5 mg. of soybean protein, and the compound to be tested. Four replicate flasks are used per treatment. Two sets of four control flasks each are also employed. A zero-time control and an incubated 16-hour control are used. All test flasks are incubated for 16 hours at 38°C. After incubation the pH is measured, and 25 percent metaphosphoric acid (2 ml.) is added to each flask. The samples are allowed to settle, and the supernatant is analyzed by gas chromatography for propionate, acetate, and butyrate compounds.
Test-compound results are statistically compared with the control results.

birds = assay: Other studies: palatability and toxicity in birds; format: in vivo
Eimeria tenella = assay: Control of coccidiosis in chicks inoculated with Eimeria tenella, drug in feed; format: in vivo; details: for Avg. Wt. Gain/Bird: 7 days after inoculation; for Lesion Scores: number of birds at score 0 / Lesion Scores: number of birds at score 1 / Lesion Scores: number of birds at score 2 / Lesion Scores: number of birds at score 3 / Lesion Scores: number of birds at score 4: of 15 birds
Description: A group of 75 one-week-old, healthy, incubator and battery-reared, cross-bred male chicks, of a heavy broiler type was used. The birds were divided into five groups of 15 birds having three replicates of five-bird subgroups each. Each subgroup was reared out of contact with the other subgroups. A first group was held as an untreated healthy control under favorable conditions. A second group was treated as the first group, but was inoculated with coccidiosis by oral administration of a dose containing 10^5 sporulated oocysts of Eimeria tenella. The third, fourth and fifth groups were treated as the second group except that, 24 hours before the said inoculation, their feed was modified by addition of metabolite A-27106 sodium salt in concentrations of 100, 150, and 200 parts per million (ppm), respectively.
Seven days after inoculation, the birds were weighed, sacrificed and examined for evidence of coccidial lesions. Coccidial involvement was expressed on an arbitrary scale of zero to four. Lesion scores indicate the number of birds at each level. Zero indicates no evidence of coccidiosis. One designates the least coccidial involvement that can be seen. Two indicates moderate involvement with little or no hemorrhage and no severe tissue damage. Three indicates hemorrhage, swelling of the caeca, and extensive tissue involvement. Four indicates hemorrhage, a caecal core of clotted blood and debrided epithelial cells. Birds scoring […] or less usually recover if not further infected with coccidia.

[3] = 0.2 mcg./ml. diluted rumen fluid
[4] = medicated birds with high lesion scores

CCC1(C2OC(C3OC(O)(COC4OC(CO)C(O)C(O)C4O)C(C)CC3C)CC2C)CCC(C2(C)CCC3(CC(O)C(C)C(C(C)C(OC)C(C)C(=O)O)O3)O2)O1 (stereo not drawn) [Metabolite A-27106]
toxicity compared with monensin (mice; mice): less toxic than monensin
pKa [1]: 7.2

CCC1(C2OC(C3OC(O)(COC4OC(CO)C(O)C(O)C4O)C(C)CC3C)CC2C)CCC(C2(C)CCC3(CC(O)C(C)C(C(C)C(OC)C(C)C(=O)O)O3)O2)O1 (stereo not drawn) [metabolite A-27106 sodium salt]
weight gains (coccidiosis; 0.04 percent versus 0.01 percent in diet): no greater weight gains at 0.04 percent than at 0.01%
toxicity (coccidiosis; higher rate (0.04 percent)): no evidence of toxicity
caecal lesions (coccidiosis; higher rate (0.04 percent) versus 0.01 percent): fewer caecal lesions
mice died (mice; 50 mg./kg.): one out of six died
mice died (mice; 100 mg./kg.): three out of six died
solubility ([2]; highly polar solvents): readily soluble
solubility ([2]; liquid lower alkanes): relatively insoluble
solubility ([2]; lower aliphatic alcohols): soluble
solubility ([2]; nonpolar solvents): insoluble
solubility ([2]; phenol, diethyl ether and acetone): partially soluble
solubility ([2]; solvents of intermediate polarity): varies in solubility
Butyrate, ratio of concentration in treated to control flasks (rumen fluid; [3]): 0.91
Propionate, ratio of concentration in treated to control flasks (rumen fluid; [3]): 1.02
Total VFA, ratio of concentration in treated to control flasks (rumen fluid; [3]): 1.07
Butyrate, ratio of concentration in treated to control flasks (rumen fluid; 1 mcg./ml. diluted rumen fluid): 0.96
Propionate, ratio of concentration in treated to control flasks (rumen fluid; 1 mcg./ml. diluted rumen fluid): 1.42
Total VFA, ratio of concentration in treated to control flasks (rumen fluid; 1 mcg./ml. diluted rumen fluid): 0.98
Butyrate, ratio of concentration in treated to control flasks (rumen fluid; 5 mcg./ml. diluted rumen fluid): 0.73
Propionate, ratio of concentration in treated to control flasks (rumen fluid; 5 mcg./ml. diluted rumen fluid): 2.15
Total VFA, ratio of concentration in treated to control flasks (rumen fluid; 5 mcg./ml. diluted rumen fluid): 1.03
toxicity compared with monensin (birds): less toxic than was monensin
Avg. Wt. Gain/Bird (Eimeria tenella; 100 ppm in the diet): 157 Grams
Lesion Scores: number of birds at score 0 (Eimeria tenella; 100 ppm in the diet): 4
Lesion Scores: number of birds at score 1 (Eimeria tenella; 100 ppm in the diet): 1
Lesion Scores: number of birds at score 2 (Eimeria tenella; 100 ppm in the diet): 0
Lesion Scores: number of birds at score 3 (Eimeria tenella; 100 ppm in the diet): 3
Lesion Scores: number of birds at score 4 (Eimeria tenella; 100 ppm in the diet): 7
Avg. Wt. Gain/Bird (Eimeria tenella; 150 ppm in the diet): 150 Grams
Lesion Scores: number of birds at score 0 (Eimeria tenella; 150 ppm in the diet): 3
Lesion Scores: number of birds at score 1 (Eimeria tenella; 150 ppm in the diet): 3
Lesion Scores: number of birds at score 2 (Eimeria tenella; 150 ppm in the diet): 1
Lesion Scores: number of birds at score 3 (Eimeria tenella; 150 ppm in the diet): 1
Lesion Scores: number of birds at score 4 (Eimeria tenella; 150 ppm in the diet): 7
Avg. Wt. Gain/Bird (Eimeria tenella; 200 ppm in the diet): 166 Grams
Lesion Scores: number of birds at score 0 (Eimeria tenella; 200 ppm in the diet): 5
Lesion Scores: number of birds at score 1 (Eimeria tenella; 200 ppm in the diet): 0
Lesion Scores: number of birds at score 2 (Eimeria tenella; 200 ppm in the diet): 0
Lesion Scores: number of birds at score 3 (Eimeria tenella; 200 ppm in the diet): 0
Lesion Scores: number of birds at score 4 (Eimeria tenella; 200 ppm in the diet): 10
condition of birds (Eimeria tenella; [4]): appeared to be in good condition
fecal blood (Eimeria tenella; [4]): scanty or absent

CC[C@@]1([C@@H]2O[C@@H]([C@H]3O[C@@](O)(CO)[C@H](C)C[C@@H]3C)C[C@@H]2C)CC[C@H]([C@]2(C)CC[C@]3(C[C@H](O)[C@@H](C)[C@@H]([C@@H](C)[C@@H](OC)[C@H](C)C(=O)O)O3)O2)O1 [monensin sodium salt, reference compound]
mice died (mice; 10 mg./kg.): one out of six died
mice died (mice; 20 mg./kg.): three out of six died

Reference: patent US3932619A, “Metabolite A-27106 and processes for its preparation and use” (Eli Lilly and Company, priority 1974, dated 1976)
